The results in this text go back to ChEMBL document CHEMBL1201862, “PubChem BioAssay data set” (2004).

Calls of active or inactive are those of the source. Where only a bound is given, the exact number is not on record here.

Assay [1] in a line: AlphaScreen signal interference compounds, dose response, artefact control for ARNT-TACC3 interaction inhibitor project, biochemical, luminescence, cherry-pick (AID 651705).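 Note: AlphaScreen bead proximity signal that flags compounds interfering with the detection technology; potency reflects signal decrease which marks the compound as an assay artifact.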 Type of assay: functional. For orientation: In Alpha technology, singlet oxygen from a donor bead excites a nearby acceptor bead.
Assay [2] addresses T1, Corticotropin-releasing factor receptor 2/Corticotropin-releasing factor-binding protein (Homo sapiens, UniProt P24387+Q13324).
T1 sequence (Q13324 whole entry): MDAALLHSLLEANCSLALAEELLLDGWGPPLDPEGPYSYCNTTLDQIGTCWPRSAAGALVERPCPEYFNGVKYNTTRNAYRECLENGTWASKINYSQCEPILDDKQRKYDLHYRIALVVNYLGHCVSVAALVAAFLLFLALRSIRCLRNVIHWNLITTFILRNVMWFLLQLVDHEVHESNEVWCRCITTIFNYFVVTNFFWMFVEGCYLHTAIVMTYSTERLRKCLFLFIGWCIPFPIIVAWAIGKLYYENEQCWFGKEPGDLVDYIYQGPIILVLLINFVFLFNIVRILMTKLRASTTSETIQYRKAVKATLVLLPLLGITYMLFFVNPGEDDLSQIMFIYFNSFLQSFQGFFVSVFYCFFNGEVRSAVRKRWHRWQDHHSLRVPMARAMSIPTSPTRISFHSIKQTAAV
T1 sequence (P24387 whole entry): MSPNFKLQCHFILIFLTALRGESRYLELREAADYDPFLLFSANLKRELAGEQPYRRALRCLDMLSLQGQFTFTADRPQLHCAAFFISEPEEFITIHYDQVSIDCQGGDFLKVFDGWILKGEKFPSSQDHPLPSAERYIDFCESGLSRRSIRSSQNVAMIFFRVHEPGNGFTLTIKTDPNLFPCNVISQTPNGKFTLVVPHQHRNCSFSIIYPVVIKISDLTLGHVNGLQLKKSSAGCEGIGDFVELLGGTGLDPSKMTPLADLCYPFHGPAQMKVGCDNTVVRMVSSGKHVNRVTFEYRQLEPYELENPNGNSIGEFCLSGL
Kind of assay: activators of CRF receptor 2 with binding protein – uHTS hits, confirmation (AID 602473). Type of assay: functional. The note with it: read-out: EC50_Mean.

Assay [3] in a line: CRF-BP/CRF-R2 complex antagonists, dose response, cell-based, uHTS hits, 384-well (AID 651639). The following applies: read-out: IC50_Mean. Type of assay: functional, Homo sapiens.
Assay [4] is described as follows: Luminescence Cell-Based Dose Retest to Confirm Inhibitors of Cancer Stem Cells. [Related pubchem assays (depositor defined):AID2717, AID2721]. The note with it: Homo sapiens. Type of assay: functional.
Assay [5] has as its target T1, Corticotropin-releasing factor receptor 2/Corticotropin-releasing factor-binding protein. Kind of assay: Dose Response confirmation of uHTS hits for small molecule antagonists of the CRF-binding protein and CRF-R2 receptor complex. Type of assay: functional. The note with it: read-out: IC50_Mean.
The target of assay [6] is T2, Low molecular weight phosphotyrosine protein phosphatase (Homo sapiens, UniProt P24666).
T2 sequence (P24666 whole entry): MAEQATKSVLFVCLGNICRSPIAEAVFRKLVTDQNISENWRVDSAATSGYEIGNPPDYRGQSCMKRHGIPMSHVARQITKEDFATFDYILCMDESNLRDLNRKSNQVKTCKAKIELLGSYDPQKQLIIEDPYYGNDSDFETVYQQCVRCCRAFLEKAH
Type of assay: functional. The note with it: read-out: IC50_Mean.

Assay [7] has as its target T2, Low molecular weight phosphotyrosine protein phosphatase. Type of assay: functional. The note with it: read-out: IC50_Mean. The source holds these as a separate data set.
In assay [8] the test system is HEK293. Kind of assay: HEK cell cytotoxicity by LDH release, dose response, cytotoxicity control for IDE activator project, fluorescence, HEK cells (AID 588440).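 Note: cytotoxicity by LDH release measuring loss of membrane integrity.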 Type of assay: functional, cell-based. The following applies: Homo sapiens. On the technique in general: LDH leaks from cells whose membrane has failed.
The target of assay [9] is T3, Insulin-degrading enzyme (Homo sapiens, UniProt P14735).
T3 sequence (P14735 whole entry): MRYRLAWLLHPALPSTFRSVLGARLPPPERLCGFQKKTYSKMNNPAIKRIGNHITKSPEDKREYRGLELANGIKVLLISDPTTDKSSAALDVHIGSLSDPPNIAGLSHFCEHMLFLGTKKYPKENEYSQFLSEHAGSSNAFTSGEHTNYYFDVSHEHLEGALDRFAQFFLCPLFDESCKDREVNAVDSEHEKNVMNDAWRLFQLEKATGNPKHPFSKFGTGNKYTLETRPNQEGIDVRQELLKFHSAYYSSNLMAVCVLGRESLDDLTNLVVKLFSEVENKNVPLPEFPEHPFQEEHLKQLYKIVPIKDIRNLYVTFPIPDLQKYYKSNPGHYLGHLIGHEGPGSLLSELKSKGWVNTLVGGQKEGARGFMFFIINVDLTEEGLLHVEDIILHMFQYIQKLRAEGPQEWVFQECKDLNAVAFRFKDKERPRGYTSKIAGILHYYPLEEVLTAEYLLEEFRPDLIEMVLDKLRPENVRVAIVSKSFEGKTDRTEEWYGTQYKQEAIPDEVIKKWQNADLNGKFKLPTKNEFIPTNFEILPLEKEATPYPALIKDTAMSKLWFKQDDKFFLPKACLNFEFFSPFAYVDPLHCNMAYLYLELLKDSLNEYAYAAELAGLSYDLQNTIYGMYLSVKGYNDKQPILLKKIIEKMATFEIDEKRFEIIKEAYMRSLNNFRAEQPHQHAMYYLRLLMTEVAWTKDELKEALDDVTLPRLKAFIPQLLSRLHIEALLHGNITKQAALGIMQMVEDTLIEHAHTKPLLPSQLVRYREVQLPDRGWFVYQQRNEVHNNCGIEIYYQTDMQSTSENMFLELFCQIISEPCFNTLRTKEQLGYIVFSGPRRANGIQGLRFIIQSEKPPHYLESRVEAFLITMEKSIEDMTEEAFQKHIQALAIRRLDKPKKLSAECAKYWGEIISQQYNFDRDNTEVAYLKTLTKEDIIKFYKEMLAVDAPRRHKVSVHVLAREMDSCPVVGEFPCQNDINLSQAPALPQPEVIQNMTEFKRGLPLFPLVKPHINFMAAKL
Kind of assay: activators of endogenous IDE in HEK cells, dose response, cell-based, fluorescence polarization (AID 588439). Type of assay: functional.

In assay [10] the target is T3, Insulin-degrading enzyme. Kind of assay: activators of recombinant IDE enzyme, dose response, counter-screen for IDE activator project, biochemical, fluorescence polarization (AID 588681). A general note: Counterscreens check selectivity or assay interference.
For assay [11], the system named is HEK293. Kind of assay: optical interference in Abeta FP readout, dose response, artefact control for IDE activator project, biochemical, fluorescence polarization (AID 588442). Type of assay: functional, cell-based. The note with it: Homo sapiens.
For another assay, the target named is Nonstructural protein 1 (Influenza A virus, UniProt Q194T2). Type of assay: functional, Influenza A virus (A/California/07/2009(H1N1)).
Another assay has as its target Cytochrome P450 2D6 (Homo sapiens, UniProt P10635).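 Note: CYP2D6 member of a cytochrome P450 panel assay.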
The target of assay [12] is T4, Endoribonuclease toxin MazF (Escherichia coli K-12, UniProt P0AE70).
T4 sequence (P0AE70 whole entry): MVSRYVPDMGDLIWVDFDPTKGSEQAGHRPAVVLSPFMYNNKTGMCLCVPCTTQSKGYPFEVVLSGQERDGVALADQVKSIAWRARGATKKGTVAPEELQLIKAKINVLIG
The assay is described as follows: MazF toxin RNase activators, dose response, biochemical, fluorescence, single-stranded RNA substrate, uHTS hits (AID 588481). Type of assay: functional.

For assay [13], the target named is T5, RNA-binding protein pos-1 (Caenorhabditis elegans, UniProt G5EF15).
T5 sequence (G5EF15 whole entry): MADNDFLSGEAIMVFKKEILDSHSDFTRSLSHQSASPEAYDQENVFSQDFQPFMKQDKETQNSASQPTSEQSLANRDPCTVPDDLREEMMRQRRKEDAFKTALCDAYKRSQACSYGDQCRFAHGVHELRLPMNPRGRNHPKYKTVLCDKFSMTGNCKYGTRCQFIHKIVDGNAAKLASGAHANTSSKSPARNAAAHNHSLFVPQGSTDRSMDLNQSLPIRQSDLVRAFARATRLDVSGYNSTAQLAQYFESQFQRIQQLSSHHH
Kind of assay: inhibitors of POS-1/mex-3 RNA binding, dose response, biochemical, fluorescence polarization (AID 1964).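 Note: purified POS-1 fused to maltose binding protein made in E. coli; potency of compounds blocking POS-1 binding to fluorescent RNA.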

The target of assay [14] is T4, Endoribonuclease toxin MazF. The assay is described as follows: fluorescent RNA oligo signal without MazF, dose response, counter-screen for MazEF activator project, biochemical, fluorescence, single-stranded RNase substrate (AID 588502). Type of assay: functional.
The target in assay [15] is T6, Zinc finger protein mex-5 (Caenorhabditis elegans, UniProt Q9XUB2).
T6 sequence (Q9XUB2 whole entry): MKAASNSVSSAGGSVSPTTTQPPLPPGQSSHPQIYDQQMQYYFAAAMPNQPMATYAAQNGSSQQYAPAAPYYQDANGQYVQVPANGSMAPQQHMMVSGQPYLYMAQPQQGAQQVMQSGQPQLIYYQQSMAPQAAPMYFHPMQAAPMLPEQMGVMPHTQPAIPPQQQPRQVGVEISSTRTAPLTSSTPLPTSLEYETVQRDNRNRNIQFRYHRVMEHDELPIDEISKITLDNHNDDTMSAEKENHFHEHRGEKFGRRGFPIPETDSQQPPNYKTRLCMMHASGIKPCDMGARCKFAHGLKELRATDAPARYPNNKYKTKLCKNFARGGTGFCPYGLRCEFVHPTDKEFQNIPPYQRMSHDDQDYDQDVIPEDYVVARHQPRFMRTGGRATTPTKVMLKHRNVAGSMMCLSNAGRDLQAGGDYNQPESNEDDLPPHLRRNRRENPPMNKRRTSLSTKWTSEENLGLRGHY
Kind of assay: MEX-5/TCR-2 RNA interaction inhibitors, dose response, biochemical, C. elegans, fluorescence polarization (AID 1960).

A short description of assay [16]: miR-122 activators in hepatoma reporter cells, dose response, cell-based, Huh7 psiCHECK-miR122, Renilla luciferase, cherry-picked (AID 651956).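 Note: huh7 hepatoma cells stably carrying a psiCHECK-2 miR-122 sensor plasmid; renilla luciferase signal reporting endogenous miR-122 activity after 48 h compound exposure.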 Type of assay: functional.
For assay [17], the target named is T7, Aryl hydrocarbon receptor (Homo sapiens, UniProt P35869).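 Note: confirmatory quantitative high-throughput screen measuring activation of the AhR signaling pathway.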
T7 sequence (P35869 whole entry): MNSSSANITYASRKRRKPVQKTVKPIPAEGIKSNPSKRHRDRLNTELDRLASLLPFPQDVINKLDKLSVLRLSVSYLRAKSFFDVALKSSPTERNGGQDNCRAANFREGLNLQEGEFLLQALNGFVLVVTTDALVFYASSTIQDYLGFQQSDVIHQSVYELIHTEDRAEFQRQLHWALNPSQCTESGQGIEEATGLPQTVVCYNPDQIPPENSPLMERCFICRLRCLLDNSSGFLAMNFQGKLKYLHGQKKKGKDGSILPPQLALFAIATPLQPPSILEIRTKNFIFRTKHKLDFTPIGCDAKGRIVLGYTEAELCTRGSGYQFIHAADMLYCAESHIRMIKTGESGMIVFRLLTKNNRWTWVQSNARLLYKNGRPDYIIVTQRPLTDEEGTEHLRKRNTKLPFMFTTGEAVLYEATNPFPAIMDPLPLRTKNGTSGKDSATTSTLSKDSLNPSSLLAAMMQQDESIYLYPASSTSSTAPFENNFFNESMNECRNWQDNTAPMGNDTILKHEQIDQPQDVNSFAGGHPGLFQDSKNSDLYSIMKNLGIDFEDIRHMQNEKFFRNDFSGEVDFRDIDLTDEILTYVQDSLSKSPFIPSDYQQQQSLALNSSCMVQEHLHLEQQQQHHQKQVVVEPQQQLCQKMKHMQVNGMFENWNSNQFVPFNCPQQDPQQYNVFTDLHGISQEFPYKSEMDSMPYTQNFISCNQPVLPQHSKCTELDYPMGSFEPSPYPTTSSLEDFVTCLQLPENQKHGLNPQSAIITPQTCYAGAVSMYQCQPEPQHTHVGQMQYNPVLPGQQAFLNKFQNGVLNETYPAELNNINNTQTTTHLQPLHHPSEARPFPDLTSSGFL
The following applies: Potency.

Sequence of Cytochrome P450 2D6 (P10635 whole entry): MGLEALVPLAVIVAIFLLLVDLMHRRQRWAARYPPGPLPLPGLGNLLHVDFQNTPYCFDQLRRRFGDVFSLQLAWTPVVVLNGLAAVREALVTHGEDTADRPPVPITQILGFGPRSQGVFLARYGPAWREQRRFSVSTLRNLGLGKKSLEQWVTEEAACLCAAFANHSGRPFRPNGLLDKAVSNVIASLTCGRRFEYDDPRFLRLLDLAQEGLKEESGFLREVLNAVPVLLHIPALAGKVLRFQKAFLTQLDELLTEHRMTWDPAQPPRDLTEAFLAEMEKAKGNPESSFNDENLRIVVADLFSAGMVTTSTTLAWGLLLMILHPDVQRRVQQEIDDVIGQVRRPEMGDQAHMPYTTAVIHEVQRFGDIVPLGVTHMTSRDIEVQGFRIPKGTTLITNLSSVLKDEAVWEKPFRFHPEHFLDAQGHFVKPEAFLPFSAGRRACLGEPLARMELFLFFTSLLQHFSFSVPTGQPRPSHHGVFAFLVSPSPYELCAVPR
Sequence of Nonstructural protein 1 (Q194T2 whole entry): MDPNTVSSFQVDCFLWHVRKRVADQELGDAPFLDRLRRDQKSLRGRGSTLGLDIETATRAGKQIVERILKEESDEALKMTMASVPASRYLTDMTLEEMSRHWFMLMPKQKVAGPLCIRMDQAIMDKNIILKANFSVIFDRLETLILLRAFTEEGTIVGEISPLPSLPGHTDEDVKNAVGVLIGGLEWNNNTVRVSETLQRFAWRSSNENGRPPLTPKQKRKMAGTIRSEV

Turning to `Cc1cccc(C(=O)Nc2nnc(C3=COCCO3)o2)c1`, the half-maximal activity concentration (AC50) (as a rule, the concentration at which the activity in the assay is half-maximal) in assay [1] was 128 µM (active).
Turning to `CCN(c1ccccc1)c1nc(C#N)nc(N(CC)c2ccccc2)n1`, the EC50 in assay [2] is > 53 µM (inactive). In addition, the IC50 was 6 µM (active) in assay [3] and 0.723 µM (active) in assay [5]. The AC50 in assay [4] is 3.66 µM (active).
Take `O=C(OCCNc1nc(-c2ccccc2)nc2ccccc12)c1cccnc1`: the figures for the IC50 in assay [6] and in [7] were 23.1 µM (inactive) and 7.51 µM (active), respectively.
For the compound `O=C(O)c1ccc(N=Nc2c(O)ccc3ncccc23)cc1`, the IC50 in the assay with HEK293 [8] is > 89.2 µM (inactive); on Nonstructural protein 1, 3.07 µM (active). The values for the EC50 at Insulin-degrading enzyme [9], on Insulin-degrading enzyme [10] and in the assay on HEK293 [11] were 7.38 µM (active), 6.69 µM (active) and 30.9 µM (inactive), respectively.
In the case of `Cc1c(CCO)c(=O)n(-c2ccccc2)n1S(=O)(=O)c1c(Cl)cc(Cl)cc1Cl`, the AC50 on Cytochrome P450 2D6 was 7.94 µM (inconclusive); in [1], 76.8 µM (active).
As for `C=CCN1C(=O)/C(=C2/Sc3ccc(OC)cc3N2CC)SC1=S`, the EC50 is > 99 µM (inactive) in assay [12]; > 53 µM (inactive) in assay [2]; > 300 µM (inconclusive) in assay [13]; > 99 µM (inactive) in assay [14]; > 300 µM (not active) in assay [15].
In the case of `Cc1ccc(-c2cnc3c(c2)C(=O)N([C@H](C)CO)C[C@@H](C)[C@H](CN(C)CC2CCCCC2)O3)cc1`, in assay [16], the AC50 was 18.3 µM (active).
The same measure, in the same setting: in the case of `O=C(C1CCOCC1)N1[C@H](CO)[C@H]2c3ccccc3NC[C@H]21` it was 30 µM (active).
Take `C1=C/CC/C=C/CC/C=C/CC/1`: the AC50 in [17] was 44.7 µM (inconclusive).
With `CCOP(=S)(OCC)Oc1ccc2c(C)c(Cl)c(=O)oc2c1` [COUMAPHOS], the AC50 in [17] was 0.178 µM (inconclusive).
